From publication PMC7447621, “Chemoenzymatic synthesis of daptomycin analogs active against daptomycin-resistant strains” (Applied Microbiology and Biotechnology, 2020)
Values joined by “and” are separate entries in the source; they are usually repeats but may differ in a detail not shown here. Identical values can stand only once. Like-named read-outs stand apart in the source and are kept apart here. Numbered stars: 1 amine (or outer) side, 2 acyl side, 3 side chain; on linkers, the order of the positions; unused ones are H or OH. Bridge positions count the residues as written; N and C are the ends. Square brackets hold non-standard residues; d marks the D form. Peptide text beside a SMILES is read from it. * marks the point of attachment. X10 = C=C(C)/C=C/C(C)n1cc(C[C@H](N[*:1])C(=O)[*:2])c2ccccc21; X5 = C=C(C)/C=C/C(C)c1[nH]c2ccccc2c1C[C@H](N[*:1])C(=O)[*:2]; X1 = O=C([C@H](Cc1c[nH]c2cc(CC3=CCCCC3)ccc12)N[*:1])[*:2]; X2 = O=C([C@H](Cc1cn(CC=C2CCCCC2)c2ccccc12)N[*:1])[*:2]; X6 = CC/C(C)=C/Cn1cc(C[C@H](N[*:1])C(=O)[*:2])c2ccccc21; X3 = C=C/C=C/Cc1[nH]c2ccccc2c1C[C@H](N[*:1])C(=O)[*:2]; Glu(3R-Me) = C[C@H](CC(=O)O)[C@H](N)C(=O)O; Kyn = Nc1ccccc1C(=O)C[C@H](N)C(=O)O; Decanoyl = CCCCCCCCCC(=O)*; Orn = NCCC[C@H](N)C(=O)O

Legend:
S. aureus (hVISA, SR220) = conditions: DapS, VISA, BEI NR-50512; MIC90, broth microdilution, MHB + 50 mg L^−1 calcium, 35 °C, 22 h, A600, triplicate
E. faecalis (R712) = conditions: DapR, BEI HM-335; MIC90, broth microdilution, MHB + 50 mg L^−1 calcium, 35 °C, 22 h, A600, triplicate
E. faecalis (S613) = conditions: DapS, BEI HM-334, MIC90, broth microdilution, MHB + 50 mg L^−1 calcium, 35 °C, 22 h, A600, triplicate
[1] = test system: E. faecalis (hVRE, ATCC 700802); conditions: for fold enhanced activity (compared with Dap): vancomycin-resistant Enterococcus, Table 1, Fig. S1; for MIC: DapS, VRE, MIC90, broth microdilution, MHB + 50 mg L^−1 calcium, 35 °C, 22 h, A600, triplicate
[2] = test system: S. aureus (SAUSA300_1713 NE573); conditions: DapR, strain JE2 transposon mutant NE573, BEI NR-47116; MIC90, broth microdilution, MHB + 50 mg L^−1 calcium, 35 °C, 22 h, A600, triplicate
[3] = test system: S. aureus (SAUSA300_1715 NE1656); conditions: DapR, strain JE2 transposon mutant NE1656, BEI NR-48198; MIC90, broth microdilution, MHB + 50 mg L^−1 calcium, 35 °C, 22 h, A600, triplicate
[4] = test system: S. aureus (hVISA, SR3777); conditions: DapS, BEI NR-50509; MIC90, broth microdilution, MHB + 50 mg L^−1 calcium, 35 °C, 22 h, A600, triplicate
S. aureus (ATCC 25923) = conditions: DapS strain; MIC90, broth microdilution, MHB + 50 mg L^−1 calcium, inoculum 1×10^5–5×10^5 CFU/mL, 35 °C, 22 h, A600, triplicate; converted from μM
[5] = test system: S. aureus (MRSA, ATCC 700787); conditions: DapS, MIC90, broth microdilution, MHB + 50 mg L^−1 calcium, 35 °C, 22 h, A600, triplicate
[6] = test system: S. epidermidis (ATCC 12228); conditions: DapS; MIC90, broth microdilution, MHB + 50 mg L^−1 calcium, 35 °C, 22 h, A600, triplicate
[7] = format: physicochemical
Text: These differences in activity could be due to differences between the structures of Dap and its analogs either in complex with Gram-positive membranes or in their unbound form. However, with no three-dimensional structure data for the analogs, only conjecture can be offered as to the cause. […] [2004]; Jung et al. [2004]), the benzene ring of Trp is thought to stick out away from the peptide core and lie roughly parallel to the main axis of the acyl tail. […] [2017]), which also suffered from a decrease in activity compared with its N1-normal-prenylated regioisomer. Conversely, the diene moieties attached at the C2 position are prone to conjugate addition reactions which would prevent the proper binding conformation or even enable degradation pathways. Therefore, to check their stability, all purified Dap analogs were reinjected on RP-HPLC after their structural and activity characterization (see Supporting Information Fig. S3). […] While future kinetic and engineering studies will likely answer these questions, the SAR identified in this study will inform future Dap development efforts using the […]-based diversification scheme.

[8] = test system: S. aureus (hVISA, SR4035); conditions: DapS, BEI NR-50510; MIC90, broth microdilution, MHB + 50 mg L^−1 calcium, 35 °C, 22 h, A600, triplicate

| Compound | MIC (S. aureus (hVISA, SR220)) [µg/mL] | MIC (E. faecalis (R712)) [µg/mL] | MIC (E. faecalis (S613)) | fold enhanced activity (compared with Dap) [1] | MIC [2] [µg/mL] | MIC [3] [µg/mL] | MIC range (DapR S. aureus; DapR S. aureus strains (Table 1), range over the named analogs and strains) [µg/mL] | fold improvement in antibacterial activity over Dap (DapR S. aureus; DapR S. aureus, relative potency, Fig. S1) | MIC (E. faecalis (S613); listed as Dap) | MIC [4] [µg/mL] | MIC (S. aureus (ATCC 25923)) [µg/mL] | MIC [5] [µg/mL] | MIC [6] [µg/mL] | MIC [1] [µg/mL] | stability of the purified product (RP-HPLC chromatogram) [7] | MIC [8] [µg/mL] |
| --- | --- | --- | --- | --- | --- | --- | --- | --- | --- | --- | --- | --- | --- | --- | --- | --- |
| CCCCCCCCCC(=O)N[C@@H](Cc1cn(C/C=C(\C)CC)c2ccccc12)C(=O)N[C@H](CC(N)=O)C(=O)N[C@@H](CC(=O)O)C(=O)N[C@@H]1C(=O)NCC(=O)N[C@@H](CCCN)C(=O)N[C@@H](CC(=O)O)C(=O)N[C@H](C)C(=O)N[C@@H](CC(=O)O)C(=O)NCC(=O)N[C@H](CO)C(=O)N[C@@H]([C@H](C)CC(=O)O)C(=O)N[C@@H](CC(=O)c2ccccc2N)C(=O)O[C@@H]1C [compound 42, N1-6-Dap] (Decanoyl-[X6][dN]DTG[Orn]D[dA]DG[dS][Glu(3R-Me)][Kyn]; ester 4-C) | 0.5 | 17.0 | 1.1 µg/mL | 5–15 fold |  |  |  |  |  |  |  |  |  |  |  |  |
| CCCCCCCCCC(=O)N[C@@H](Cc1cn(CC=C2CCCCC2)c2ccccc12)C(=O)N[C@H](CC(N)=O)C(=O)N[C@@H](CC(=O)O)C(=O)N[C@@H]1C(=O)NCC(=O)N[C@@H](CCCN)C(=O)N[C@@H](CC(=O)O)C(=O)N[C@H](C)C(=O)N[C@@H](CC(=O)O)C(=O)NCC(=O)N[C@H](CO)C(=O)N[C@@H]([C@H](C)CC(=O)O)C(=O)N[C@@H](CC(=O)c2ccccc2N)C(=O)O[C@@H]1C [compound 51, N1-19-Dap] (Decanoyl-[X2][dN]DTG[Orn]D[dA]DG[dS][Glu(3R-Me)][Kyn]; ester 4-C) | 1.1 | 5.2 | 1.3 µg/mL | 5–15 fold | 1.3 | 2.6 |  |  |  |  |  |  |  |  |  |  |
| CCCCCCCCCC(=O)N[C@@H](Cc1c[nH]c2cc(CC3=CCCCC3)ccc12)C(=O)N[C@H](CC(N)=O)C(=O)N[C@@H](CC(=O)O)C(=O)N[C@@H]1C(=O)NCC(=O)N[C@@H](CCCN)C(=O)N[C@@H](CC(=O)O)C(=O)N[C@H](C)C(=O)N[C@@H](CC(=O)O)C(=O)NCC(=O)N[C@H](CO)C(=O)N[C@@H]([C@H](C)CC(=O)O)C(=O)N[C@@H](CC(=O)c2ccccc2N)C(=O)O[C@@H]1C [compound 52, C6-20-Dap] (Decanoyl-[X1][dN]DTG[Orn]D[dA]DG[dS][Glu(3R-Me)][Kyn]; ester 4-C) | 0.5 | 6.2 | 0.3 to 0.6 µg/mL and 0.4 µg/mL | 5–15 fold | 0.4 | 0.2 | 0.2 to 0.5 | 30–80 fold |  |  |  |  |  |  |  |  |
| CCCCCCCCCC(=O)N[C@@H](Cc1c[nH]c2ccccc12)C(=O)N[C@H](CC(N)=O)C(=O)N[C@@H](CC(=O)O)C(=O)N[C@@H]1C(=O)NCC(=O)N[C@@H](CCCN)C(=O)N[C@@H](CC(=O)O)C(=O)N[C@H](C)C(=O)N[C@@H](CC(=O)O)C(=O)NCC(=O)N[C@H](CO)C(=O)N[C@@H]([C@H](C)CC(=O)O)C(=O)N[C@@H](CC(=O)c2ccccc2N)C(=O)O[C@@H]1C [DAP, Daptomycin] | 4.0 | >32.4 | 16.2 µg/mL |  | 16.2 | 16.2 |  |  | ~ 16 μg mL^−1 |  |  |  |  |  |  |  |
| C=C(C)/C=C/C(C)c1[nH]c2ccccc2c1C[C@H](NC(=O)CCCCCCCCC)C(=O)N[C@H](CC(N)=O)C(=O)N[C@@H](CC(=O)O)C(=O)N[C@@H]1C(=O)NCC(=O)N[C@@H](CCCN)C(=O)N[C@@H](CC(=O)O)C(=O)N[C@H](C)C(=O)N[C@@H](CC(=O)O)C(=O)NCC(=O)N[C@H](CO)C(=O)N[C@@H]([C@H](C)CC(=O)O)C(=O)N[C@@H](CC(=O)c2ccccc2N)C(=O)O[C@@H]1C (stereo partly drawn) [compound 47, C2R-18-Dap] (Decanoyl-[X5][dN]DTG[Orn]D[dA]DG[dS][Glu(3R-Me)][Kyn]; ester 4-C) | >34.3 | >34.3 | >34.3 µg/mL |  | >34.3 | >34.3 |  |  |  | 34.3 | >34.3 | >34.3 | 34.3 | 34.3 |  |  |
| C=C(C)/C=C/C(C)n1cc(C[C@H](NC(=O)CCCCCCCCC)C(=O)N[C@H](CC(N)=O)C(=O)N[C@@H](CC(=O)O)C(=O)N[C@@H]2C(=O)NCC(=O)N[C@@H](CCCN)C(=O)N[C@@H](CC(=O)O)C(=O)N[C@H](C)C(=O)N[C@@H](CC(=O)O)C(=O)NCC(=O)N[C@H](CO)C(=O)N[C@@H]([C@H](C)CC(=O)O)C(=O)N[C@@H](CC(=O)c3ccccc3N)C(=O)O[C@@H]2C)c2ccccc21 (stereo partly drawn) [compound 48, N1R-18-Dap] (Decanoyl-[X10][dN]DTG[Orn]D[dA]DG[dS][Glu(3R-Me)][Kyn]; ester 4-C) |  | 17.1 |  |  |  |  |  |  |  |  | 17.1 |  |  |  |  |  |
| C=C/C=C/Cc1[nH]c2ccccc2c1C[C@H](NC(=O)CCCCCCCCC)C(=O)N[C@H](CC(N)=O)C(=O)N[C@@H](CC(=O)O)C(=O)N[C@@H]1C(=O)NCC(=O)N[C@@H](CCCN)C(=O)N[C@@H](CC(=O)O)C(=O)N[C@H](C)C(=O)N[C@@H](CC(=O)O)C(=O)NCC(=O)N[C@H](CO)C(=O)N[C@@H]([C@H](C)CC(=O)O)C(=O)N[C@@H](CC(=O)c2ccccc2N)C(=O)O[C@@H]1C [compound 45, C2-15-Dap] (Decanoyl-[X3][dN]DTG[Orn]D[dA]DG[dS][Glu(3R-Me)][Kyn]; ester 4-C) | 33.7 | >8.4 | >8.4 µg/mL |  | >8.4 | >8.4 |  |  |  | 16.9 | 16.9 | >33.7 | 16.9 | 33.7 | significant degradation | >33.7 |
